# From publication PMC7255010, “Small-molecule activating SIRT6 elicits therapeutic effects and synergistically promotes anti-tumor activity of vitamin D3 in colorectal cancer” (Theranostics, 2020)
# What was measured:
# HCT116 = assay: Cell cycle analysis (PI staining, flow cytometry); type: cell-based, human; conditions: for cell cycle phase distribution, G2/M: 48 h (0 µM: 20.4 ± 4.5); for cell cycle phase distribution, S: 48 h (0 µM: 30.1 ± 4.4); for cell cycle phase distribution, G0/G1: 48 h (0 µM: 49.5 ± 3.5)
# Experimental: (§1) Then, cells were collected and fixed with 75% ethanol at 4 °C overnight. The cells were incubated with RNase I (50 μg/mL) in 1× PBS at 37 °C for 30 min and stained with propidium iodide (50 μg/mL) for 15 min. The cells were analyzed by flow cytometry and FACS DIVA software, v6.2 (BD Biosciences). The cell cycle distribution was analyzed using FlowJo 7.6.1 software. The data are presented as the mean ± s.d. of three independent experiments.
# SW480 = assay: Cell cycle analysis (PI staining, flow cytometry); type: cell-based, human; conditions: for cell cycle phase distribution, G2/M: 48 h (0 µM: 13.9 ± 1.8); for cell cycle phase distribution, S: 48 h (0 µM: 38.3 ± 3.6); for cell cycle phase distribution, G0/G1: 48 h (0 µM: 47.7 ± 1.3)
# Experimental: as §1
# HT29 = assay: Cell cycle analysis (PI staining, flow cytometry); type: cell-based, human; conditions: for cell cycle phase distribution, G2/M: 48 h (0 µM: 22.6 ± 6.7); for cell cycle phase distribution, S: 48 h (0 µM: 36.9 ± 4.6); for cell cycle phase distribution, G0/G1: 48 h (0 µM: 40.5 ± 2.6)
# Experimental: as §1
# [1] = tested on: PDX tumors from CRC patients #1 and #2; assay: CRC PDX models; type: in vivo, nude mice; conditions: 30 mg/kg intraperitoneally every other day for 12 days, two PDX models
# Experimental: All animal studies were performed following federal and institutional guidelines approved by the Institutional Animal Care and Use Committee at Shanghai Jiao-Tong University School of Medicine. To establish the CDXs, HCT116 cells (1 × 10^6) suspended in 100 μL of 1× PBS were injected subcutaneously into the flanks of six-week-old male BALB/c nude mice. To establish the PDXs, primary tumors resected from two independent CRC patients (patient #1 and #2) were collected in the culture medium. The necrotic and supporting tissues were carefully removed using sterilized surgical blades. The gross tumor was cut into fragments (2-3 mm in diameter) and inoculated subcutaneously into the flanks of nude mice. The mice were monitored daily, and caliper measurements began when tumors became visible. The tumor volume was monitored every other day via calipers. The tumor volume was calculated using the following formula: (L × W ^2) / 2, where L and W refer to the tumor diameter along the longitudinal and transverse axes, respectively. When the mean tumor volume was approximately 100 to 250 mm^3, the mice were randomly grouped (n = 6 per group for CDXs, n = 8 per group for PDXs), and treatment was initiated. […] After treatment or if meeting the humane endpoint criteria, the mice were sacrificed by CO2 asphyxiation. The tumors were dissected, imaged, and weighed. […]
compound,measurement,setting,value
Cc1cc(F)c(Br)cc1NS(=O)(=O)c1ccc(NS(=O)(=O)c2cc(Cl)cc(Cl)c2)cc1CN1CCOC[C@H]1C [MDL-811],"cell cycle phase distribution, G2/M","HCT116; HCT116, 5 µM",17.9 ± 4.0
same,"cell cycle phase distribution, S","HCT116; HCT116, 5 µM",19.0 ± 2.3
same,"cell cycle phase distribution, G0/G1","HCT116; HCT116, 5 µM",63.2 ± 2.1
same,"cell cycle phase distribution, G2/M","HCT116; HCT116, 10 µM",14.1 ± 3.8
same,"cell cycle phase distribution, S","HCT116; HCT116, 10 µM",19.0 ± 4.3
same,"cell cycle phase distribution, G0/G1","HCT116; HCT116, 10 µM",66.9 ± 1.4
same,"cell cycle phase distribution, G2/M","SW480; SW480, 5 µM",10.8 ± 4.4
same,"cell cycle phase distribution, S","SW480; SW480, 5 µM",26.3 ± 5.1
same,"cell cycle phase distribution, G0/G1","SW480; SW480, 5 µM",62.9 ± 6.0
same,"cell cycle phase distribution, G2/M","SW480; SW480, 10 µM",11.9 ± 6.4
same,"cell cycle phase distribution, S","SW480; SW480, 10 µM",18.1 ± 4.9
same,"cell cycle phase distribution, G0/G1","SW480; SW480, 10 µM",70.0 ± 3.8
same,"cell cycle phase distribution, G2/M","HT29; HT29, 5 µM",20.2 ± 4.2
same,"cell cycle phase distribution, S","HT29; HT29, 5 µM",25.3 ± 4.5
same,"cell cycle phase distribution, G0/G1","HT29; HT29, 5 µM",54.5 ± 4.1
same,"cell cycle phase distribution, G2/M","HT29; HT29, 10 µM",20.5 ± 3.7
same,"cell cycle phase distribution, S","HT29; HT29, 10 µM",19.6 ± 2.3
same,"cell cycle phase distribution, G0/G1","HT29; HT29, 10 µM",59.9 ± 2.7
same,tumor growth,[1],strong tumor regression in both PDX models
